Tested on: plants
Experiment: Test D pre-emergence, other plants of Tables D1 and D3
Type: in vivo
Conditions: 20 DAA; for damage to plant (100=total damage to plant; 0=no damage to plant), BIDPI / damage to plant (100=total damage to plant; 0=no damage to plant), BRAPL / damage to plant (100=total damage to plant; 0=no damage to plant), CYPES / damage to plant (100=total damage to plant; 0=no damage to plant), EPHHL / damage to plant (100=total damage to plant; 0=no damage to plant), GLXMA / damage to plant (100=total damage to plant; 0=no damage to plant), IPOHE / damage to plant (100=total damage to plant; 0=no damage to plant), SORVU: preemergent; for CHEAL damage rating / GALAP damage rating / KCHSC damage rating / LOLPE damage rating / POAAN damage rating / STEME damage rating / VERPE damage rating: pre-emergence, 100=total damage, 0=no damage
How it was run: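 Damage was rated visually from 0 (none) to 100 (total), at 20 DAA for pre-emergence and 15 d for post-emergence. Plants grew from safener-treated seed in a glasshouse at 24/18° C. or 20/16° C. day/night, 65% humidity, watered twice daily.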

## CN1CC(c2cnn(C)c2C(F)(F)F)C(C(=O)Nc2cccc(F)c2F)C1=O (racemic) [Compound 25]
Rate 15
  damage to plant (100=total damage to plant; 0=no damage to plant), BIDPI: 0
  damage to plant (100=total damage to plant; 0=no damage to plant), BRAPL: 0
  damage to plant (100=total damage to plant; 0=no damage to plant), CYPES: 0
  damage to plant (100=total damage to plant; 0=no damage to plant), EPHHL: 0
  damage to plant (100=total damage to plant; 0=no damage to plant), GLXMA: 0
  damage to plant (100=total damage to plant; 0=no damage to plant), IPOHE: 0
  damage to plant (100=total damage to plant; 0=no damage to plant), SORVU: 0
Rate 30
  damage to plant (100=total damage to plant; 0=no damage to plant), BIDPI: 0
  damage to plant (100=total damage to plant; 0=no damage to plant), BRAPL: 0
  damage to plant (100=total damage to plant; 0=no damage to plant), CYPES: 0
  damage to plant (100=total damage to plant; 0=no damage to plant), EPHHL: 0
  damage to plant (100=total damage to plant; 0=no damage to plant), GLXMA: 0
  damage to plant (100=total damage to plant; 0=no damage to plant), IPOHE: 0
  damage to plant (100=total damage to plant; 0=no damage to plant), SORVU: 0
Rate 60
  damage to plant (100=total damage to plant; 0=no damage to plant), BIDPI: 0
  damage to plant (100=total damage to plant; 0=no damage to plant), BRAPL: 30
  damage to plant (100=total damage to plant; 0=no damage to plant), CYPES: 0
  damage to plant (100=total damage to plant; 0=no damage to plant), EPHHL: 0
  damage to plant (100=total damage to plant; 0=no damage to plant), GLXMA: 0
  damage to plant (100=total damage to plant; 0=no damage to plant), IPOHE: 0
  damage to plant (100=total damage to plant; 0=no damage to plant), SORVU: 0
Rate 130
  damage to plant (100=total damage to plant; 0=no damage to plant), BIDPI: 0
  damage to plant (100=total damage to plant; 0=no damage to plant), BRAPL: 80
  damage to plant (100=total damage to plant; 0=no damage to plant), CYPES: 0
  damage to plant (100=total damage to plant; 0=no damage to plant), EPHHL: 0
  damage to plant (100=total damage to plant; 0=no damage to plant), GLXMA: 0
  damage to plant (100=total damage to plant; 0=no damage to plant), IPOHE: 0
  damage to plant (100=total damage to plant; 0=no damage to plant), SORVU: 0
Rate 250
  damage to plant (100=total damage to plant; 0=no damage to plant), BIDPI: 0
  damage to plant (100=total damage to plant; 0=no damage to plant), BRAPL: 90
  damage to plant (100=total damage to plant; 0=no damage to plant), CYPES: 0
  damage to plant (100=total damage to plant; 0=no damage to plant), EPHHL: 0
  damage to plant (100=total damage to plant; 0=no damage to plant), GLXMA: 0
  damage to plant (100=total damage to plant; 0=no damage to plant), IPOHE: 0
  damage to plant (100=total damage to plant; 0=no damage to plant), SORVU: 0
Rate 500
  damage to plant (100=total damage to plant; 0=no damage to plant), BIDPI: 0
  damage to plant (100=total damage to plant; 0=no damage to plant), BRAPL: 90
  damage to plant (100=total damage to plant; 0=no damage to plant), CYPES: 0
  damage to plant (100=total damage to plant; 0=no damage to plant), EPHHL: 0
  damage to plant (100=total damage to plant; 0=no damage to plant), GLXMA: 0
  damage to plant (100=total damage to plant; 0=no damage to plant), IPOHE: 0
  damage to plant (100=total damage to plant; 0=no damage to plant), SORVU: 0
Rates 15
  CHEAL damage rating: 0
  GALAP damage rating: 0
  KCHSC damage rating: 0
  LOLPE damage rating: 0
  POAAN damage rating: 0
  STEME damage rating: 0
  VERPE damage rating: 0
Rates 30
  CHEAL damage rating: 0
  GALAP damage rating: 0
  KCHSC damage rating: 0
  LOLPE damage rating: 0
  POAAN damage rating: 0
  STEME damage rating: 0
  VERPE damage rating: 0
Rates 60
  CHEAL damage rating: 0
  GALAP damage rating: 0
  KCHSC damage rating: 0
  LOLPE damage rating: 0
  POAAN damage rating: 0
  STEME damage rating: 0
  VERPE damage rating: 0
Rates 130
  CHEAL damage rating: 0
  GALAP damage rating: 0
  KCHSC damage rating: 0
  LOLPE damage rating: 0
  POAAN damage rating: 0
  STEME damage rating: 0
  VERPE damage rating: 0
Rates 250
  CHEAL damage rating: 20
  GALAP damage rating: 0
  KCHSC damage rating: 0
  LOLPE damage rating: 0
  POAAN damage rating: 0
  STEME damage rating: 0
  VERPE damage rating: 0
Rates 500
  CHEAL damage rating: 50
  GALAP damage rating: 0
  KCHSC damage rating: 0
  LOLPE damage rating: 0
  POAAN damage rating: 0
  STEME damage rating: 50
  VERPE damage rating: 10
